The values below come from US8142764B2, “Synthetic biofilm-inhibiting peptides” (priority 2008, dated 2012).

“Also recorded” adds a separate entry of the source. Where no end group is shown, it is not given here.

In series [1] the test system is proteolytic activity of P. gingivalis. Format: cell-based, Porphyromonas gingivalis. The note with it: intact cells pre-treated with inhibitor. The source says: Inhibition of protease activity. The proteolytic activity of P. gingivalis was inhibited using a bacterial protease inhibitor cocktail (Sigma, St. Louis, Mo.) containing the following inhibitors: 4-(2-Aminoethyl)benzenesulfonyl fluoride hydrochloride (AEBSF), N-(trans-epoxysuccinyl)-L-leucine 4 guanidinobutylamide (E-64), sodium ethylenediaminetetra-acetate (EDTA), bestatin and pepstatin A. The inhibitor cocktail was suspended in dimethylsulfoxide (DMSO) (Sigma, St. Louis, Mo.) at the concentration recommended by the manufacturer.

Series [2] concerns P. gingivalis/S. gordonii biofilm. The series can be described thus: Inhibition of P. gingivalis adherence and biofilm formation on S. gordonii (open flow cell, confocal microcolony count). Format: cell-based, Porphyromonas gingivalis. The note with it: for inhibition of biofilm formation: peptide 3.38 μM. Here is the method: P. gingivalis adherence and biofilm formation. The adherence of intact P. gingivalis to S. gordonii cells and the subsequent formation of biofilms was carried out using an open flow system essentially as previously described by Amorin Daep et al. Infect Immun 74:5756-62 (2006) and Lamont et al. Microbiology 148:1627-36 (2002). The flow reactor comprised a Manostat Carter 4/8 cassette peristaltic pump (Fisher Scientific, Suwanee, Ga.) using 0.89 millimeter platinum-cured silicone tubing (Fisher Scientific, Suwanee, Ga.) and a BST FC 71 flow cell (Biosurface Technologies, Corp, Bozeman, Mont.). A single surface of a 15×40 mm cover glass (Fisher Scientific, Suwanee, Ga.) was coated with 0.22 μm filter sterilized saliva and incubated at 37° C. for 30 minutes. The saliva coated coverglass was then washed with sterile 1×PBS at a flow rate of 6 ml per hour for 30 minutes to remove unbound salivary constituents.
S. gordonii DL-1 cells were harvested by centrifugation at 4000 rpm at 4° C. for 15 minutes and suspended in 25 ml of sterile 1×PBS. S. gordonii cells were labeled with 20 μl of hexidium iodide (1.6 mg/ml, Molecular Probes, Eugene, Oreg.) at 25° C. for 30 minutes in the dark and washed with PBS. Adherence of streptococci to the saliva coated cover glass was carried out by delivering S. gordonii cells to the flow chamber at a flow rate of 6 ml per hour for approximately 2 hours. Following inoculation with S. gordonii, the flow cell was washed with sterile 1×PBS for 30 minutes at 6 ml per hour to remove non-adherent bacteria from the cover glass.
P. gingivalis ATCC 33277 cells were harvested by centrifugation at 4000 rpm at 4° C. for 45 minutes, suspended in 25 ml of sterile 1×PBS, and introduced into the flow cell at a flow rate of 6 ml per hour for 2 hours at 25° C. to allow P. gingivalis to adhere and accumulate on the streptococcal substrate. Flow cells were subsequently washed with sterile 1×PBS to remove non-adherent P. gingivalis cells. To visualize adherent P. gingivalis, rabbit anti-P. gingivalis 33277 polyclonal antibody diluted 3:5000 in 5 ml of sterile 1×PBS was flowed into the cell at a rate of 6 ml per hour. The flow cell was then washed with sterile 1×PBS for 1 hour, reacted with anti-rabbit IgG fluorescein isothiocyanate (FITC) conjugate (Sigma, St. Louis, Mo.) in sterile 1×PBS (1:5000) for 1 hour at 6 ml per hour, and received a final wash with sterile 1×PBS as above. Under these conditions, the streptococci bound to the saliva coated coverglass as a non-confluent layer comprising single cells and small aggregates. P. gingivalis subsequently adhered to and formed distinct microcolonies on the immobilized streptococci. The microcolonies were visualized and quantified by confocal microscopy as described below.
Confocal microscopy and analysis of P. gingivalis biofilms. P. gingivalis-S. gordonii biofilms were visualized using an Olympus FluoView 500 confocal laser scanning microscope (Olympus, Pittsburgh, Pa.) under 600× magnification using an Argon laser for visualization of FITC labeling and the HeNe-G laser to visualize hexidium iodide labeled streptococci. The number and depth of FITC-labeled P. gingivalis microcolonies was determined from 30 to 60 randomly chosen frames using the FluoView software package provided by Olympus. Microcolony depth was determined by performing Z-plane scans from 0 μm to 30 μm above the coverglass surface. P. gingivalis microcolonies that formed on S. gordonii in the absence of peptide inhibitor ranged from 7 to 16 μm in depth under the experimental conditions used.
Inhibition of P. gingivalis adherence and bioflim formation. […] The P. gingivalis-peptide suspension was then introduced into the flow cell for 2 hours at a flow rate of 6 ml per hour as described above and P. gingivalis microcolonies were analyzed by confocal microscopy. Data was analyzed using GraphPad InStat3 (GraphPad Software Co.).

Series [3] addresses Mfa1 (Porphyromonas gingivalis, UniProt B2RHG1). The note with it: read-out: dissociation constant of the BAR-Mfa1 interaction; previously calculated; cited from earlier work.
For series [4], the system named is proteases produced by P. gingivalis. The series can be described thus: Proteolytic degradation of BAR by P. gingivalis cells, culture supernatant or extracts (tricine gel, densitometry). The format is in vitro ADME, Porphyromonas gingivalis. On the procedure: Proteolytic degradation of BAR by P. gingivalis. One milliliter of mid-exponential phase cultures of P. gingivalis SMF, P. gingivalis KDP128, P. gingivalis KDP129, or P. gingivalis E8 was centrifuged at 8000 rpm for 5 minutes at 4° C. The bacterial pellet was washed 3 times with 1 ml of sterile 1×PBS (100 mM sodium phosphate, pH 7.4, 150 mM NaCl). […] For some experiments, digital images of the stained gels were obtained using Epson Stylus CX3810 flatbed scanner (Espson America, Inc., Long Beach, Calif.) and analyzed by densitometry using ImageJ software (found on the world-wide-web at rsbweb.nih.gov/ij/).

In series [5] the test system is P. gingivalis/S. gordonii biofilm. The note with it: 0.3 μM.
Protocol: P. gingivalis biofilm formation with S. gordonii. The formation of dual species P. gingivalis/S. gordonii biofilms was carried out essentially as previously described by Lamont et al (2002. Microbiology 148:1627-36.) and Daep et al. (Immun 74:5756-62 (2006); Infect Immun 76:3273-80 (2008)). The bacterial biofilms were cultured using a Manostat Carter 4/8 cassette peristaltic pump (Fisher Scientific, Suwanee, Ga.) with 0.89 millimeter platinum-cured silicone tubing (Fisher Scientific, Suwanee, Ga.) and BST FC 71 flow cells (Biosurface Technologies, Corp, Bozeman, Mont.). […]
P. gingivalis cells were harvested by centrifugation at 4000 rpm at 4° C. for 45 minutes, suspended in 20 ml of sterile 1×PBS, and introduced into the flow cell at a flow rate of 6 ml per hour for 2 hours to allow the bacteria to adhere and accumulate on the streptococcal substrate. […] P. gingivalis microcolonies bound to immobilized streptococci were quantified by confocal microscopy as described below.
The bacteria were incubated with 0 and 0.845 μM peptide at ambient temperature for 30 minutes and introduced into the flow cell containing an existing streptococcal substrate for 2 hours at a flow rate of 6 ml per hour. Biofilm formation was analyzed by confocal microscopy as described below. Data was analyzed using GraphPad InStat3 software (GraphPad Software Co.) using a non-parametric analysis of variance (ANOVA). […]
The nature of series [6]: Circular dichroism (CD) spectroscopy, K2D secondary structure estimate. The format is physicochemical. The note with it: 1.4 mM peptide in phosphate buffer. Here is the method: Circular dichroism (CD) spectroscopy. CD experiments were carried out at 25° C. using Jasco J-810 spectropolarimeter (Jasco, Easton, Md.). A 40 μl sample of peptide at a concentration of 1.4 mM in filter sterilized 0.1 M phosphate buffer (pH=7.2) was analyzed in a 0.01 cm quartz cuvette (Starna Cells, Inc., Atascadero, Calif.) using the following parameters: sensitivity=100 mdeg, start wavelength=340 nm, end wavelength=180 nm, continuous scanning mode at 200 nm/minute, response=1 second, and bandwidth=1 nm. Nitrogen was flushed into the system at a rate of […] during each experiment. A total of 10 scans were accumulated and averaged and the appropriate blanks were subtracted from the spectra. The resulting spectra were expressed in molar ellipticity. Normalized CD data were analyzed using K2D software (on the world-wide web at embl-heidelberg.de/˜andrade/k2d.html)) to estimate α-helical, β-sheet, and random coil content.

Chain of Mfa1 (B2RHG1 50-563): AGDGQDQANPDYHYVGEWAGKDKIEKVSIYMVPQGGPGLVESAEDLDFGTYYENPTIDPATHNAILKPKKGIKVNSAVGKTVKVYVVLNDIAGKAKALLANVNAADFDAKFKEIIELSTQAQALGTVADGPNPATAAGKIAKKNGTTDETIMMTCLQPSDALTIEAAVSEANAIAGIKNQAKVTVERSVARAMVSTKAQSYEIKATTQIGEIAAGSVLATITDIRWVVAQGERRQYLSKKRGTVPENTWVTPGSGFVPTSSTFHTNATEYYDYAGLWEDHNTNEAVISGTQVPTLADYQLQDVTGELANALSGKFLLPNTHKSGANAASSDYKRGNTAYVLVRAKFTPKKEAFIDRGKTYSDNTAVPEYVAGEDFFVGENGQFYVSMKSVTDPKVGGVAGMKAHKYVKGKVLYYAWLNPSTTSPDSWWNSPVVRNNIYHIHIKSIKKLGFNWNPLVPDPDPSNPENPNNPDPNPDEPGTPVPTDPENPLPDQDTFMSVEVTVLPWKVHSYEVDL

As for `CC(C)C[C@H](NC(=O)[C@H]1O[C@@H]1C(=O)O)C(=O)NCCCCN=C(N)N` (relative stereo) [E-64, N-(trans-epoxysuccinyl)-L-leucine 4 guanidinobutylamide], the “concentrations that prevent cleavage of BAR by P. gingivalis (in words)” value in series [1] was “mM range”.

`Cl.NCCc1ccc(S(=O)(=O)F)cc1` [AEBSF, 4-(2-Aminoethyl)benzenesulfonyl fluoride hydrochloride]: in series [1], the “concentrations that prevent cleavage of BAR by P. gingivalis (in words)” value is “mM range”.

Turning to `O=C([O-])CN(CCN(CC(=O)[O-])CC(=O)[O-])CC(=O)[O-].[Na+].[Na+].[Na+].[Na+]` [EDTA, sodium ethylenediaminetetra-acetate], in series [1], the “concentrations that prevent cleavage of BAR by P. gingivalis (in words)” value is “mM range”.

With `CC(C)C[C@H](NC(=O)[C@@H](O)[C@H](N)Cc1ccccc1)C(=O)O` [bestatin], the “concentrations that prevent cleavage of BAR by P. gingivalis (in words)” value in series [1] is “mM range”.

Regarding LEAAPKKVPGLLKKANITVKGAFQLFS [BAR-X], the “inhibition of biofilm formation” value in series [2] is listed as around 15%.

Take LEAAPKKVQDLLKKANITVKGAFQLFS [BAR]: the Kd in series [3] was around 900 nM. The “inhibition of P. gingivalis microcolony formation” value is on record as 3% in series [2] (peptide 0.34 μM) and 7% in series [2] (peptide 0.85 μM). For the same molecule, in series [2] (peptide 1.7 μM), the “inhibition rate of P. gingivalis/S. gordonii biofilm formation” value turned out to be 80%. Further, the “inhibition of biofilm formation” value in series [2] is given as around 75%. Moreover, the “degradation by P. gingivalis 33277 (in words)” value in series [4] (5 μg BAR, wild type cells) is “immediate degradation”. Also, in series [4] (5 μg peptide, 37° C., 0 to 60 minutes), the “degradation by P. gingivalis culture supernatant (in words)” value is reported as “more slowly degraded; also recorded: time dependent degradation”. The “proteolytic cleavage by P. gingivalis culture extracts (in words)” value in series [4] (1 hour incubation, 10-20% Tris-Tricine gel) is “slowly degraded”. For the same molecule, the “relative density (R.D.) of remaining BAR peptide” value in series [4] (E8 whole cells, within 5 minutes (first value of 'R.D.=32.5 vs. 21.6')) is listed as 32.5; in series [4] (P. gingivalis SMF1 with rMfa1, T=5 minutes, loading control R.D.=61.07), 47.3; in series [4] (P. gingivalis SMF1 with rMfa1, T=30 minutes, loading control R.D.=61.07), 8.2; in series [4] (P. gingivalis SMF1 without rMfa1, T=5 minutes, loading control R.D.=61.07), −5.75; in series [4] (P. gingivalis SMF1 without rMfa1, T=30 minutes, loading control R.D.=61.07), −20.32; in series [4] (gingipain deficient P. gingivalis KDP128, T=5 minutes, loading control R.D.=115.85) it was 96.23. In series [4] (gingipain deficient P. gingivalis KDP128, T=10 minutes, loading control R.D.=115.85), the “relative density (R.D.) of remaining BAR peptide” value worked out at 115.85. For the same molecule, the “degradation by P. gingivalis E8 (lacks Arg-X gingipains), in words” value in series [4] (intact cells) is recorded as “rapidly degraded; also recorded: immediate degradation”. Besides, the “degradation by P. gingivalis KDP128 (lacks Lys-X and Arg-X gingipains), in words” value in series [4] (intact cells) was “Little degradation was observed after incubation for 10 minutes; also recorded: attenuated proteolytic activity against the peptide”. Besides, the “degradation by P. gingivalis KDP129 (lacks Lys-X gingipains), in words” value in series [4] (intact cells) is given as “attenuated degradation; also recorded: Little degradation was observed”. Also, the “degradation by intact P. gingivalis cells in the presence of purified Mfa1 (in words)” value in series [4] (pre-incubation with Mfa1) is given as “little degradation occurred after 5 minutes; also recorded: protection from proteolytic degradation”. In addition, the “relative density (R.D.) of remaining BAR peptide, comparator” value in series [4] (second value of 'R.D.=32.5 vs. 21.6', apparently wild type 33277, 5 minutes) came to 21.6. Further, the “inhibitory activity on biofilm formation” value in series [5] is around 50%.

Take LEAAPKKVQDLLKKARITIKGAFQLFS [BAR-II]: in series [6], the α-helix content is 28%. In series [2], the “biofilm inhibitory activity (in words)” value was “more potent inhibitor of P. gingivalis adherence and biofilm development than BAR”. In addition, the “fold difference in I50 / potency relative to BAR” value in series [2] (I50 0.52 μM versus 1.25 μM) is listed as “approximately 2.5 fold”. The IC50 in series [2] (P. gingivalis pre-incubated with peptide, streptococcal substrate, read-out: I50 for inhibition of P. gingivalis adherence and biofilm formation) is 520 nM. The results for the “inhibition of P. gingivalis microcolony formation” value in series [2] (peptide 0.34 μM) and in series [2] (peptide 0.85 μM) were 25% and 82%, respectively.

For LQAAPKKVQDLLKKANITVKGAFQLFS [BAR-XIV], in series [2] (peptide 1.7 μM), the “inhibitory activity compared to BAR (in words)” value is recorded as “significant decrease in inhibitory activity”. Also, the “restoration of inhibitory activity (in words)” value in series [2] (peptide 17 μM) was “did not show partial or full restoration”.
